Values of other authors in article PMC7522491 (Molecular Metabolism, 2020).
Where no end group is shown, it is not given here.

Tests used:
[1] = infusion into the portal circulation, dogs
[2] = administration in mice

**Q.** For `CCCCCCCC/C=C\CCCCCCCC(=O)O` [oleate], which hepatic insulin clearance [1] is on record?
**A.** Its hepatic insulin clearance is “suppressed hepatic insulin clearance”.

**Q.** Which “blood insulin levels / insulin clearance” value [2] does the source give for “glucagon-like peptide-1 (HAEGTFTSDVSSYLEGQAAKEFIAWLVKGR; ends and bridges not checked; UniProt P55095 98-127, looked up) [GLP-1, incretin hormone administered in mice (literature)]” here?
**A.** The value was “increased blood insulin levels in part by reducing insulin clearance”.
